Reference: paper PMC3063827, “Myosin-cross-reactive antigen (MCRA) protein from Bifidobacterium breve is a FAD-dependent fatty acid hydratase which has a function in stress protection” (BMC Biochemistry, 2011)

Molecular target: T1, MCRA (myosin-cross-reactive antigen; FAD-dependent fatty acid hydratase) (Bifidobacterium breve, UniProt F1CWI2)
T1 construct: 1878 bp gene), N-terminal 6x His tag, pET28 (pBBI2), E. coli BL21 Star, HisTrap purified, ~66 kDa on SDS-PAGE; primers begin at MYYSSGNYE
T1 sequence (F1CWI2 1-625): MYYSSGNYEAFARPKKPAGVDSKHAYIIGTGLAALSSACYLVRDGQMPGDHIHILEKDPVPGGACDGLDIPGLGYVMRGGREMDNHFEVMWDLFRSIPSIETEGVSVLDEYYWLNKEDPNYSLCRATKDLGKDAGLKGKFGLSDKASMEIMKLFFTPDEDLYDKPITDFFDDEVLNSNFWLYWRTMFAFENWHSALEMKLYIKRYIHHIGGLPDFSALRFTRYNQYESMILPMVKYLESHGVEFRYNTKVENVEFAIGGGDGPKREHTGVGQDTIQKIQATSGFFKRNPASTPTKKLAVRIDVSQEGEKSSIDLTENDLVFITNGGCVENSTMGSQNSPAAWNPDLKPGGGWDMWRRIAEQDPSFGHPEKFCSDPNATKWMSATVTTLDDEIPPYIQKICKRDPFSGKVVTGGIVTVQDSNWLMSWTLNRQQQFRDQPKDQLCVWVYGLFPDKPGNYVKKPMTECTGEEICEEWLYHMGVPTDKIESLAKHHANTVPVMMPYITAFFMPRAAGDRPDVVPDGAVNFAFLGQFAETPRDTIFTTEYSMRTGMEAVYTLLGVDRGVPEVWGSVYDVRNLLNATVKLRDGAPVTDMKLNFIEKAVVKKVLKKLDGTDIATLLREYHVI
Assay: UV-Vis absorption spectrum of purified protein and of supernatant after heat denaturation
Type: binding
Settings: non-covalent, co-purified; flavin-like maxima ~450 and 370 nm; FAD identity rests on spectrum and analogy to S. pyogenes MCRA (FMN also run as reference)

## Cc1cc2nc3c(=O)[nH]c(=O)nc-3n(C[C@H](O)[C@H](O)[C@H](O)COP(=O)(O)OP(=O)(O)OC[C@H]3O[C@@H](n4cnc5c(N)ncnc54)[C@H](O)[C@@H]3O)c2cc1C [FAD]
  UV-Vis absorption spectrum of purified protein and of supernatant after heat den: flavin cofactor is released in the solution upon protein denaturation by heat
